Values after ≈ are worked out from the molar mass of the structure shown. Active and inactive are the calls of the source. The rule behind the calls is not given here.
Tests used:
[1] = Toxicity in BALB/c nude mouse xenografted with human MV4-11 cells assessed as effect on heart at 60 mg/kg, po administered every two days for 14 days by hematoxyin-eosin staining based analysis; type: organism-based; conditions: in vivo, 336 h, time 14 day
P-gp [2] = target: T1, P-gp (Homo sapiens, UniProt P08183); assay: Substrate activity at P-gp in human Caco-2 cells assessed as permeability across apical to basolateral membrane by LC-MS/MS analysis; type: ADME, cell-based; conditions: read-out: permeability
[3] = Water solubility of the compound; type: physicochemical
[4] = target: T2, Induced myeloid leukemia cell differentiation protein Mcl-1 (Homo sapiens, UniProt Q07820); assay: Displacement of BAK from MCL1 in human NCI-H929 cells after 4 hrs by co-immunoprecipitation assay; type: cell-based; conditions: dose 0.1-0.5 µM
MV4-11 [5] = assay: Antiproliferative activity against human MV4-11 cells assessed as decrease in cell viability measured after 72 hrs by MTT assay; type: functional, cell-based; conditions: MV4-11, 72 h
Bcl-2-like protein 2 = target: T3, Bcl-2-like protein 2 (Homo sapiens, UniProt Q92843); assay: Binding affinity to human partial length BCLW (M1 to R171 residues) expressed in bacterial expression system by BCL2SCAN assay
T3 sequence (Q92843 whole entry): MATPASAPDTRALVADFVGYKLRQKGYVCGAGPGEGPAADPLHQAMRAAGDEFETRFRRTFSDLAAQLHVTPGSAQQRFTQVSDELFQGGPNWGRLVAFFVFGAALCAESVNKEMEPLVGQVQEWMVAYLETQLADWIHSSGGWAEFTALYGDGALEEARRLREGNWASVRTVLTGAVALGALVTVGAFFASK

MV4-11 [6] = assay: Induction of apoptosis in human MV4-11 cells xenografted in BALB/c nude mouse assessed as induction of PARP cleavage at 60 mg/kg, po administered every two days for 14 days by Western blot analysis; type: functional, organism-based; conditions: time 14.0 day
[7] = Apparent volume of distribution in Sprague-Dawley rat at 10 mg/kg, po measured up to 24 hrs by LC-MS/MS analysis; type: ADME, organism-based; conditions: in vivo
NCI-H929 [8] = assay: Induction of apoptosis in human NCI-H929 cells measured after 48 hrs by annexinV-FITC/propidium iodide staining based flow cytometry analysis; type: functional, cell-based; conditions: dose 1-5 µM
[9] = Half life in human liver microsomes; type: ADME, Microsome
[10] = Stability of the compound in mouse plasma assessed as parent compound remaining measured after 2 hrs by LC-MS/MS analysis; type: ADME, cell-free; conditions: read-out: Stabilty
[11] = target: T4, Apoptosis regulator Bcl-2 (Homo sapiens, UniProt P10415); assay: Inhibition of FITC-labeled Bak BH3 peptide binding to GST-tagged BCL2 (1 to 205 residues) (unknown origin) expressed in Escherichia coli BL21 (DE3) at 10 uM incubated for 30 mins fluorescence polarization-based competitive binding assay relative to control
K562 [12] = assay: Antiproliferative activity against human K562 cells assessed as decrease in cell viability measured after 72 hrs by MTT assay; type: functional, cell-based; conditions: K562, 72 h
[13] = Stability in human liver microsomes assessed as parent compound remaining preincubated for 5 mins followed by NADPH addition and measured after 30 mins by LC-MS/MS analysis; type: ADME, Microsome; conditions: time 35 min, read-out: Stabilty
NCI-H929 [14] = assay: Antiproliferative activity against human NCI-H929 cells assessed as decrease in cell viability measured after 72 hrs by MTT assay; type: functional, cell-based; conditions: NCI-H929, 72 h
MV4-11 [15] = assay: Induction of apoptosis in human MV4-11 cells xenografted in BALB/c nude mouse assessed as induction of PARP cleavage at 20 mg/kg, ip administered every two days for 14 days by Western blot analysis; type: functional, organism-based; conditions: time 14.0 day
K562 [16] = assay: Induction of apoptosis in human K562 cells assessed as activation of caspase 7 up to 5 uM after 4 hrs by luminescence based microplate reader assay; type: functional, cell-based; conditions: dose microM <=5, time 4.0 hrs
SK-BR-3 = assay: Antiproliferative activity against human SK-BR-3 cells assessed as decrease in cell viability measured after 72 hrs by MTT assay; type: functional, cell-based; conditions: SK-BR-3, 72 h
[17] = target: T2, Induced myeloid leukemia cell differentiation protein Mcl-1; assay: Inhibition of FITC-labeled Bak BH3 peptide binding to GST-tagged MCL1 (171 to 327 residues) (unknown origin) expressed in Escherichia coli BL21 (DE3) incubated for 30 mins fluorescence polarization-based competitive binding assay
[18] = Toxicity in BALB/c nude mouse xenografted with human MV4-11 cells assessed as effect on kidney at 20 mg/kg, ip administered every two days for 14 days by hematoxyin-eosin staining based analysis; type: organism-based; conditions: in vivo, 336 h, time 14 day
P-gp [19] = target: T1, P-gp; assay: Substrate activity at P-gp in human Caco-2 cells assessed as efflux ratio of permeability by LC-MS/MS analysis; type: ADME, cell-based
[20] = Toxicity in BALB/c nude mouse xenografted with human MV4-11 cells assessed as effect on liver weight at 20 mg/kg, ip administered every two days for 14 days; type: organism-based; conditions: in vivo, 336 h, time 14 day
[21] = Half life in Sprague-Dawley rat at 3 mg/kg, iv measured up to 24 hrs by LC-MS/MS analysis; type: ADME, organism-based; conditions: in vivo
[22] = target: Voltage-gated inwardly rectifying potassium channel KCNH2 (Homo sapiens, UniProt Q12809); assay: Inhibition of human ERG
CYP2C19 = CYP2C19 (Homo sapiens, UniProt P33261); assay: Inhibition of CYP2C19 (unknown origin) at 10 uM preincubated for 5 min followed by NADPH addition and measured after 20 mins by LC-MS/MS analysis relative to control; type: ADME; conditions: time 25 min
[23] = target: T4, Apoptosis regulator Bcl-2; assay: Binding affinity to human partial length BCL2 (M1 to D211 residues) expressed in bacterial expression system by BCL2SCAN assay
[24] = Toxicity in BALB/c nude mouse xenografted with human MV4-11 cells assessed as effect on body weight at 20 mg/kg, ip administered every two days for 14 days; type: organism-based; conditions: in vivo, 336 h, time 14 day
[25] = Toxicity in BALB/c nude mouse xenografted with human MV4-11 cells assessed as effect on heart at 20 mg/kg, ip administered every two days for 14 days by hematoxyin-eosin staining based analysis; type: organism-based; conditions: in vivo, 336 h, time 14 day
[26] = Toxicity in BALB/c nude mouse xenografted with human MV4-11 cells assessed as effect on liver at 60 mg/kg, po administered every two days for 14 days by hematoxyin-eosin staining based analysis; type: organism-based; conditions: in vivo, 336 h, time 14 day
[27] = Toxicity in BALB/c nude mouse xenografted with human MV4-11 cells assessed as effect on heart weight at 60 mg/kg, po administered every two days for 14 days; type: organism-based; conditions: in vivo, 336 h, time 14 day
[28] = Permeability of the compound at pH 7.4 measured after 4 hrs by PAMPA assay; type: ADME; conditions: read-out: permeability
[29] = Toxicity in BALB/c nude mouse xenografted with human MV4-11 cells assessed as effect on body weight at 60 mg/kg, po administered every two days for 14 days; type: organism-based; conditions: in vivo, 336 h, time 14 day
Bcl-2-like protein 1 = Bcl-2-like protein 1 (Homo sapiens, UniProt Q07817); assay: Binding affinity to human partial length BCL-XL (M1 to R209 residues) expressed in bacterial expression system by BCL2SCAN assay
NCI-H929 [30] = assay: Induction of apoptosis in human NCI-H929 cells assessed as upregulation of cleaved PARP measured after 48 hrs by Western blot analysis; type: functional, cell-based; conditions: dose microM <=5, time 48.0 hrs
[31] = Stability of the compound in simulated gastric fluid assessed as parent compound remaining measured after 6 hrs; type: ADME; conditions: read-out: Stabilty

T2 sequence (Q07820 whole entry): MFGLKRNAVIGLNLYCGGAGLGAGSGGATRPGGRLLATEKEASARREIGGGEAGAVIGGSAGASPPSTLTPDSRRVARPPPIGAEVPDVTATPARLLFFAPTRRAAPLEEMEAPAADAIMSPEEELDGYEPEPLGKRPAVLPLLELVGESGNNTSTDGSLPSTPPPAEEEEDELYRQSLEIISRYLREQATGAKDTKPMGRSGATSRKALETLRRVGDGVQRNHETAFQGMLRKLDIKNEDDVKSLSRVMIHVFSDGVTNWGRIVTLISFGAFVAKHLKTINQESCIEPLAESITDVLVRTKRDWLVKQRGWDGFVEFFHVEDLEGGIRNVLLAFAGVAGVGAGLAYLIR
T4 sequence (P10415 whole entry, the tested form may be a part): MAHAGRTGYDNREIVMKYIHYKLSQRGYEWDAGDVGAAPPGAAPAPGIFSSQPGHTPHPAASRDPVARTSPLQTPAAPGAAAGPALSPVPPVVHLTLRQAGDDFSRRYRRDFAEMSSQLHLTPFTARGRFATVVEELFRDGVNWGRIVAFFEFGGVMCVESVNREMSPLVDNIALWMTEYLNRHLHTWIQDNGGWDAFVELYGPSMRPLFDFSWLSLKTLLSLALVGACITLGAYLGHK
T1 sequence (P08183 whole entry): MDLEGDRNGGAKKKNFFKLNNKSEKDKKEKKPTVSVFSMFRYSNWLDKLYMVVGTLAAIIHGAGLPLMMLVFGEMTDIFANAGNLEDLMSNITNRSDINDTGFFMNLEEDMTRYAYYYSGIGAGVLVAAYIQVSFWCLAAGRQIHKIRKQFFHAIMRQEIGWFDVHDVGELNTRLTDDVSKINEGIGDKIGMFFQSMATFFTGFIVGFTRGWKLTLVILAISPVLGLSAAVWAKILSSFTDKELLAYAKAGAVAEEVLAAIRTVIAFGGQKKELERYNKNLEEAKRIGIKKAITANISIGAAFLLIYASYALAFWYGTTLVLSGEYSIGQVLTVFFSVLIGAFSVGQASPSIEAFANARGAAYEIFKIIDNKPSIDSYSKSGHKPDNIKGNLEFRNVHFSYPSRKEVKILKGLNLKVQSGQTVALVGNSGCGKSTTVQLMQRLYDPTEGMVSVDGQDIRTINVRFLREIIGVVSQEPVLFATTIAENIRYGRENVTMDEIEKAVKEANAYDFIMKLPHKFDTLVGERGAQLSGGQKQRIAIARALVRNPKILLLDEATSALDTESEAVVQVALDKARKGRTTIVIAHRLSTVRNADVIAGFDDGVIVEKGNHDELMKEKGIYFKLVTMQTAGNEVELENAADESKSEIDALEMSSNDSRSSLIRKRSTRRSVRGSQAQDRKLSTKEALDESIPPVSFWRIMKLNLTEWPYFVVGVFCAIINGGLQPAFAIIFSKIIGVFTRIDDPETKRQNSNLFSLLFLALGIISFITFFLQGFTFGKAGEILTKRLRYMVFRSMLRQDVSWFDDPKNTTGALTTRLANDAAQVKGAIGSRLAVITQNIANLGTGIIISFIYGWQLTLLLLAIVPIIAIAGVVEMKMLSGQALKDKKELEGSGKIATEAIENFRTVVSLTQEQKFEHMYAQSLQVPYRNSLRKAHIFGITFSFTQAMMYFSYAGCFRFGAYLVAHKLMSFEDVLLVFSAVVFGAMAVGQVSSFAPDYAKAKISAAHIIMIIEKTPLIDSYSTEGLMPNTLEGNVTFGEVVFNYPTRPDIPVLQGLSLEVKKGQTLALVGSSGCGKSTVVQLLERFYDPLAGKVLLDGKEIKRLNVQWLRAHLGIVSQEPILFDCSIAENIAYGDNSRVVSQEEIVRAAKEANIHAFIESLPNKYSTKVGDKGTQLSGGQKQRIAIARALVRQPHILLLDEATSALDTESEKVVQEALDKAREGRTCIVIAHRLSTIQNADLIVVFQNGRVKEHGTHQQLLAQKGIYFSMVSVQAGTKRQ
Bcl-2-like protein 1, sequence (Q07817 whole entry, the tested form may be a part): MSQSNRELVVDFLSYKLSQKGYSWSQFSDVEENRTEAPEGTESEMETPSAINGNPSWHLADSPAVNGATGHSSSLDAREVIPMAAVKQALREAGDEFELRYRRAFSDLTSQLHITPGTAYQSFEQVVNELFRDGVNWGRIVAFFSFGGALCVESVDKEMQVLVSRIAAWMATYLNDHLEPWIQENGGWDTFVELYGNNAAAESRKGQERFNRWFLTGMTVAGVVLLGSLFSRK
CYP2C19, sequence (P33261 whole entry, the tested form may be a part): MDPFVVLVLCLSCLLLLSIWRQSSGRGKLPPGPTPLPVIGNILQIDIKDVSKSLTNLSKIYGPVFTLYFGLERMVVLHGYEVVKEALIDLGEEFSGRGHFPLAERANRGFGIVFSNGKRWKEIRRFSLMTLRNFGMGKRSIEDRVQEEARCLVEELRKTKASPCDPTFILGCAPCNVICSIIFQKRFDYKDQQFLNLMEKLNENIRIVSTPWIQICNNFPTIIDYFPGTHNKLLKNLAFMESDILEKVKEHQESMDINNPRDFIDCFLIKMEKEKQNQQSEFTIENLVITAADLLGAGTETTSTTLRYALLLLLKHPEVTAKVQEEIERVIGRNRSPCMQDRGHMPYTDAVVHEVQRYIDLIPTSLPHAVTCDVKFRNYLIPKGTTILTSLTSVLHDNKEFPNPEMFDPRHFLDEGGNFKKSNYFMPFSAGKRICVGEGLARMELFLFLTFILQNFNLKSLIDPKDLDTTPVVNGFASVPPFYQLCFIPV
Voltage-gated inwardly rectifying potassium channel KCNH2, sequence (Q12809 whole entry): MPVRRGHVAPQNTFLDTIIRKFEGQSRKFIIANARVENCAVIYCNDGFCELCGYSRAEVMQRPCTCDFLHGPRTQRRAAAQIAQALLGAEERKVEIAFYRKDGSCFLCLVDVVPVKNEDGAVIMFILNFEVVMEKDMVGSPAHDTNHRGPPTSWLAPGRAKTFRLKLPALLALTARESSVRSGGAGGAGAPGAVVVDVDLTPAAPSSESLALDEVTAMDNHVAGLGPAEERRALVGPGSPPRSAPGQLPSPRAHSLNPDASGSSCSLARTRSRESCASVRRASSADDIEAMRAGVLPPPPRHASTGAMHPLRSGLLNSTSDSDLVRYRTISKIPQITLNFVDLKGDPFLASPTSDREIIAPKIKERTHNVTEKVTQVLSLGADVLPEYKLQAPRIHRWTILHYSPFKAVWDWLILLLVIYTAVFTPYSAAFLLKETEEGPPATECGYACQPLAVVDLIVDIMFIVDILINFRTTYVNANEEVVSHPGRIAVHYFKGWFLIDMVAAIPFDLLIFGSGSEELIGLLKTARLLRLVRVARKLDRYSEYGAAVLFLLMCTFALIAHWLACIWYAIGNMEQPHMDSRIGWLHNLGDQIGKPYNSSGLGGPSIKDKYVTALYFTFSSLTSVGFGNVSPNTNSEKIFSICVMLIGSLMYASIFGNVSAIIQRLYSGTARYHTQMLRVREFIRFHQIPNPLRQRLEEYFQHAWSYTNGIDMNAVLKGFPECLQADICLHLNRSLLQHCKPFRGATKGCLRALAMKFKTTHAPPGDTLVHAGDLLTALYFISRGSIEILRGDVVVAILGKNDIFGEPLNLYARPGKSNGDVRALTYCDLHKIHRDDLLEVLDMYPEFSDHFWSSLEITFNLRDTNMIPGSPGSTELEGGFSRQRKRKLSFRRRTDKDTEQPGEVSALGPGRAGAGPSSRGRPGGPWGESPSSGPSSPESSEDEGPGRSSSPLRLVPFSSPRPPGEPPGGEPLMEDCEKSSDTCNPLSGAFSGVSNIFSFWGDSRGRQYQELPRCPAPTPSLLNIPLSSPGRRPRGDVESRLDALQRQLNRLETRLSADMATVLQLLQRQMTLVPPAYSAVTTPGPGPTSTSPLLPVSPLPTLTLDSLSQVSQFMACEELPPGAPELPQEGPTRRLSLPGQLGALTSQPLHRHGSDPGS

For `CC(=O)c1ccc(S(=O)(=O)c2c(C)c(C(=O)O)n(CCCOc3cc(C)c(Cl)c(C)c3)c2C)cc1`, the Activity [1] was “Non-Toxic”, the Papp A→B (P-gp [2]) was 36.2 nm/s and the solubility [3] was 0.0323 mg/mL (≈ 62.4 µM). For the same compound, the inhibition [4] was “Dose-Dependent Effect”, the IC50 (MV4-11 [5]) was 0.7 µM and the Kd (Bcl-2-like protein 2) was greater than 10 µM. For the same compound, the Activity (MV4-11 [6]) was “Active”, the Vz [7] was 6.65475 L/kg and the Activity (NCI-H929 [8]) was “Dose-Dependent Effect”. It also gave a half-life [9] of 0.83 h, a remaining at 2 h [10] of 100% and an inhibition [11] of 10%. It also gave an IC50 (K562 [12]) greater than 30 µM, a remaining at 0.5 h [13] of 64% and an IC50 (NCI-H929 [14]) of 0.36 µM. The Activity (MV4-11 [15]) was “Active”, the Activity (K562 [16]) was “inactive” and the IC50 (SK-BR-3) was 2.84 µM. For the same compound, the Ki [17] was 0.02 µM, the Activity [18] was “Non-Toxic” and the efflux ratio (P-gp [19]) was 0.1. The Activity [20] was “Non-Toxic”, the half-life [21] was 2.3 h and the IC50 [22] was greater than 30 µM. The inhibition at 20 min, 10 µM (CYP2C19) was 2.85%, the Kd [23] was greater than 10 µM and the Activity [24] was “Non-Toxic”. The Activity [25] was “Non-Toxic”, the Activity [26] was “Non-Toxic” and the Activity [27] was “Non-Toxic”. The Papp at 4 h [28] was 526 nm/s, the Activity [29] was “Non-Toxic” and the Kd (Bcl-2-like protein 1) was greater than 10 µM. The Activity (NCI-H929 [30]) was “Dose-Dependent Effect” and the remaining at 6 h [31] was 84.5%.

Source: ChEMBL document CHEMBL4834480, “Discovery of 3,5-Dimethyl-4-Sulfonyl-1H-Pyrrole-Based Myeloid Cell Leukemia 1 Inhibitors with High Affinity, Selectivity, and Oral Bioavailability” (J Med Chem, 2021)
